# Source: patent US8597264B2, “Apparatuses, methods, and compositions for the treatment and prophylaxis of chronic wounds” (KCI Licensing, Inc., priority 2011, dated 2013)
# What was measured:
# MMP-9 = biological target: T1, MMP-9 (Homo sapiens, UniProt P14780); assay: MMP-9 Colorimetric Drug Discovery Kit (Biomol): MMP activity reduction by dressings; assay type: biochemical; settings: compared to control samples with no MMP-9 inhibitor activity
# T1 construct: purchased Biomol
# From the text: A National Diagnostics Hydrogen Peroxide Assay Kit was used to evaluate the antioxidant properties of foam pads and the formulated coated foam pads containing alpha-lipoic acid. Foam pads coated only with gelatin were used as controls. FIG. 2 is a graph showing the percentage of hydrogen peroxide reduction due to reaction with alpha-lipoic acid. An MMP-9 Colorimetric Drug Discovery Kit (Biomol) was used to evaluate the MMP inhibiting/inactivating ability of the formulated foam pads containing alpha-lipoic acid/gelatin (ALA) and gelatin alone (GF GEL). The controls were uncoated foam pads and known potent MMP inactivating drug, NNGH (C13H20N2O5S, available from Enzo® Life Sciences). […] FIG. 4 is a graph showing the release of alpha-lipoic acid from the coating on the foam pads. The coating delivers approximately 70% of the total alpha-lipoic acid within the first day, while the remaining alpha-lipoic acid is released during the next 2-3 days.
# Coated polyurethane foam (GranuFoam®) scaffolds described above in Examples 1-2 were further assayed for their ability to reduce MMP activity as compared to non-coated collagen based scaffold such as the Biostep™ and Promogran™ products.
# [1] = Release of alpha-lipoic acid from the coating on foam pads; assay type: physicochemical; settings: coating on foam pads (FIG. 4)
# From the text: Polyurethane open-cell reticulated foam pads were selected as the scaffold and were immersed in a solution containing 1.5 wt % of alpha-lipoic acid and 4.5 wt % 225-bloom beef gelatin (and, where applicable, 0.3% EDTA). Gelatin was used as a biocompatible binding agent with good oxygen barrier and sustained release properties for alpha-lipoic acid as well as for its ability to act as a sacrificial substrate for surrounding gelatinases. Alpha-lipoic acid was pre-dissolved in ethanol and then mixed into the final solution. The foam pads were immersed for a sufficient amount of time to coat the pathways formed within the open-cell reticulated foam as described above with respect to the scaffold. After immersion, the foam pads were withdrawn, compressed to remove excess solution, and dried to a constant weight. In some cases, sodium benzoate was added to the formulation as a preservative. Dried foams comprised, by weight, 2% alpha-lipoic acid, 6% gelatin and, where applicable, 0.4% EDTA.
# A National Diagnostics Hydrogen Peroxide Assay Kit was used to evaluate the antioxidant properties of foam pads and the formulated coated foam pads containing alpha-lipoic acid. Foam pads coated only with gelatin were used as controls. FIG. 2 is a graph showing the percentage of hydrogen peroxide reduction due to reaction with alpha-lipoic acid. […]
# T1 sequence (P14780 107-444 limits assumed): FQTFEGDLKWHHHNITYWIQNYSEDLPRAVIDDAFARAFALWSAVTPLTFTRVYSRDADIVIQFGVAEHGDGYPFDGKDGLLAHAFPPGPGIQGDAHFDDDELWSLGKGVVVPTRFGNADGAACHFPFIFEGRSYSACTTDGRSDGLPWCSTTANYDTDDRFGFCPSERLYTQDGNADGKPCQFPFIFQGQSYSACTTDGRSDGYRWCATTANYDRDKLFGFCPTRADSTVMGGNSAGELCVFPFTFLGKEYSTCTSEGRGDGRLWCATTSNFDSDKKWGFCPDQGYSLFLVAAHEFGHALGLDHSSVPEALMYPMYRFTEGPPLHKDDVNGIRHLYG
Compound,% MMP-9 activity reduction (MMP-9; Table 1 experiment),% MMP-9 activity reduction (MMP-9; Table 2 experiment),time over which the remaining alpha-lipoic acid is released ([1]; after the first day),share of the total alpha-lipoic acid delivered by the coating ([1]; within the first day)
COc1ccc(S(=O)(=O)N(CC(=O)NO)CC(C)C)cc1 [NNGH],90.2%,103.8%,–,–
O=C(O)CCCCC1CCSS1 (stereo not drawn) [alpha-lipoic acid],–,–,2 to 3 days,approximately 70%
